According to the NIST ThermoML archive (doi:10.1021/je0340809):
± gives the expanded uncertainty stated by the source.

Assay: xn = mol fraction of the nth substance listed
Details: 101.3 kPa, Liquid

C=CN1CCCC1=O [N-vinylpyrrolidone] + O
Details	mass density, 298.15 K [kg/m3]	mass density, 308.15 K [kg/m3]	mass density, 318.15 K [kg/m3]	speed of sound, 298.15 K [m/s]	speed of sound, 308.15 K [m/s]	speed of sound, 318.15 K [m/s]	viscosity, 298.15 K [mPa·s]	viscosity, 308.15 K [mPa·s]	viscosity, 318.15 K [mPa·s]
x2 = 0.0557	1042.3 ± 0.77	1033.43 ± 0.71	1024.6 ± 0.66	1533.7 ± 6.3	1502.5 ± 6.2	1470.5 ± 6.1	4.243 ± 0.097	2.907 ± 0.067	2.552 ± 0.058
x2 = 0.1591	1043.33 ± 0.77	1034.36 ± 0.72	1025.41 ± 0.66	1548.1 ± 6.4	1514.3 ± 6.3	1480.4 ± 6.1	–	2.809 ± 0.065	2.454 ± 0.056
x2 = 0.2543	1044.19 ± 0.78	1035.14 ± 0.72	1026.11 ± 0.67	1563.3 ± 6.4	1526.7 ± 6.3	1490.9 ± 6.2	3.875 ± 0.089	2.718 ± 0.063	2.362 ± 0.054
x2 = 0.3503	1044.83 ± 0.78	1035.73 ± 0.73	1026.63 ± 0.67	1580.9 ± 6.5	1541.2 ± 6.3	1503.3 ± 6.2	3.75 ± 0.086	2.667 ± 0.062	2.305 ± 0.053
x2 = 0.4525	1045.46 ± 0.79	1036.33 ± 0.73	1027.16 ± 0.67	1598.7 ± 6.5	1556.2 ± 6.4	1516.6 ± 6.3	3.717 ± 0.085	2.694 ± 0.062	2.31 ± 0.053
x2 = 0.5028	1045.82 ± 0.79	1036.61 ± 0.73	1027.46 ± 0.67	1609.9 ± 6.6	1565.6 ± 6.4	1524.9 ± 6.3	3.742 ± 0.085	2.742 ± 0.063	2.34 ± 0.054
x2 = 0.5539	1046.19 ± 0.79	1037.01 ± 0.73	1027.78 ± 0.68	1618.5 ± 6.6	1573.3 ± 6.4	1532.1 ± 6.3	3.792 ± 0.086	2.807 ± 0.065	2.385 ± 0.055
x2 = 0.6546	1046.56 ± 0.79	1037.41 ± 0.73	1028.14 ± 0.68	1635.8 ± 6.6	1589.3 ± 6.5	1547.7 ± 6.4	3.91 ± 0.088	2.954 ± 0.068	2.488 ± 0.057
x2 = 0.7505	1045.06 ± 0.78	1036.16 ± 0.73	1027.08 ± 0.67	1649.2 ± 6.7	1603.4 ± 6.5	1563.3 ± 6.4	3.904 ± 0.087	3.001 ± 0.069	2.509 ± 0.057
x2 = 0.8519	1037.72 ± 0.73	1029.8 ± 0.69	1021.56 ± 0.64	1648.2 ± 6.7	1609.5 ± 6.5	1576 ± 6.4	3.466 ± 0.078	2.703 ± 0.062	–
x2 = 0.8751	1034.5 ± 0.71	1026.99 ± 0.67	–	1646.7 ± 6.7	1610.5 ± 6.5	–	3.255 ± 0.074	2.545 ± 0.059	–
x2 = 0.8852	1032.84 ± 0.7	1025.54 ± 0.66	–	1644.4 ± 6.7	1609.8 ± 6.5	–	3.145 ± 0.071	2.463 ± 0.057	–
x2 = 0.9001	1030.08 ± 0.69	1023.12 ± 0.64	–	1640 ± 6.6	1608.2 ± 6.5	–	2.962 ± 0.067	2.324 ± 0.054	–
x2 = 0.9251	1024.45 ± 0.65	1018.18 ± 0.61	–	1623.7 ± 6.6	1599.1 ± 6.5	–	2.591 ± 0.059	2.04 ± 0.048	–
x2 = 0.9357	1021.63 ± 0.63	1015.71 ± 0.6	–	1613.8 ± 6.6	1593.2 ± 6.5	–	2.408 ± 0.056	1.9 ± 0.045	–
x2 = 0.9554	1015.6 ± 0.6	1010.4 ± 0.56	–	1589.5 ± 6.5	1578.2 ± 6.4	–	2.021 ± 0.047	1.6 ± 0.038	–
x2 = 0.9649	1012.26 ± 0.57	1007.47 ± 0.55	–	1574.7 ± 6.4	1568.8 ± 6.4	–	–	1.437 ± 0.034	–
x2 = 0.9749	1008.43 ± 0.55	1004.09 ± 0.52	–	1556.5 ± 6.4	1557.1 ± 6.4	–	1.573 ± 0.037	1.252 ± 0.031	–
x2 = 0.9903	1001.77 ± 0.51	998.206 ± 0.51	–	1523.1 ± 6.3	1535.4 ± 6.3	–	1.169 ± 0.029	0.932 ± 0.024	–
